What follows are compounds tested against T1, MAGL (Homo sapiens, UniProt Q99685) (assay: 2-AG assay (MAGL inhibitory activity, hydrolysis of 2-arachidonoylglycerol to arachidonic acid followed by mass spectrometry)). Details: 8 μM 2-arachidonoylglycerol, 15 min pre-incubation, 30 min incubation at RT, RapidFire MS readout.
T1 sequence (Q99685 1-303): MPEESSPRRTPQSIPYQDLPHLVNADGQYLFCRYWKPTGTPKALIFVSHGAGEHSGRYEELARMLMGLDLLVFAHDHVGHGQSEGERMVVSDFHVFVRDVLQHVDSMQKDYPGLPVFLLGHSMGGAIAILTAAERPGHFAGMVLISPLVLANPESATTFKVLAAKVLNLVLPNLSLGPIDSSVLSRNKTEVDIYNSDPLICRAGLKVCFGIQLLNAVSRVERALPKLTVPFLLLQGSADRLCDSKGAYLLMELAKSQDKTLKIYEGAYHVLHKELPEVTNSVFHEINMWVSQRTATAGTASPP
Assay type: biochemical
In short: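 Human MAGL ([…] final) pre-incubated 15 min at RT with compound in 50 mM TRIS, 1 mM EDTA, 0.01% Tween-20, 2.5% DMSO; 8 μM 2-AG then added for 30 min at RT. Acetonitrile quench with d8-arachidonic acid; arachidonic acid measured by RapidFire SPE–MS/MS, activity from arachidonic acid/d8 ratio.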
`COc1cccc(S(=O)(=O)N2CC3(CN(C(=O)N4CC5(CC(n6cnc(C7CC7)n6)C5)C4)C3)C2)c1` [Example 245, [6-(3-cyclopropyl-1,2,4-triazol-1-yl)-2-azaspiro[3.3]heptan-2-yl]-[2-(3-methoxyphenyl)sulfonyl-2,6-diazaspiro[3.3]heptan-6-yl]methanone] was tested, and the IC50 was 9.9 nM.
In the case of `O=C(N1CC(c2ccc(OC(F)(F)F)cc2)C1)N1CC2(CC(n3cnc(C4CC4)n3)C2)C1` [Example 33, [6-(3-cyclopropyl-1,2,4-triazol-1-yl)-2-azaspiro[3.3]heptan-2-yl]−[3-[4-(trifluoromethoxy)phenyl]azetidin-1-yl]methanone], the IC50 is reported as 0.4 nM.
`O=C(N1CC(Oc2cccc(C(F)(F)F)c2Cl)C1)N1CC2(CC(n3cnc(C4CC4)n3)C2)C1` [Example 222, (3-(2-chloro-3-(trifluoromethyl)phenoxy)azetidin-1-yl)(6-(3-cyclopropyl-1H-1,2,4-triazol-1-yl)-2-azaspiro[3.3]heptan-2-yl)methanone] gave an IC50 of 2.6 nM.
With `CP(C)(=O)c1ccc(COC2CN(C(=O)N3CC4(CC(n5cnc(C(F)(F)F)n5)C4)C3)C2)cc1` [Example 414, [3-[(4-dimethyl-phosphorylphenyl)methoxy]azetidin-1-yl]-[6-[3-(trifluoromethyl)-1,2,4-triazol-1-yl]-2-azaspiro[3.3]heptan-2-yl]methanone] the IC50 was 2960 nM.
`O=C(c1ccc(F)cc1Cl)N1CC2(C1)CN(C(=O)N1CC3(CC(n4cnc(C5CC5)n4)C3)C1)C2` [Example 292, (2-chloro-4-fluoro-phenyl)-[2-[6-(3-cyclopropyl-1,2,4-triazol-1-yl)-2-azaspiro[3.3]heptane-2-carbonyl]-2,6-diazaspiro[3.3]heptan-6-yl]methanone] gave an IC50 of 77.1 nM.
`O=C(N1CC2(CC(n3cnc(C4CC4)n3)C2)C1)N1CC2(C1)CN(S(=O)(=O)c1cc(F)cc(F)c1)C2` [Example 213, [6-(3-cyclopropyl-1,2,4-triazol-1-yl)-2-azaspiro[3.3]heptan-2-yl]-[2-(3,5-difluorophenyl)sulfonyl-2,6-diazaspiro[3.3]heptan-6-yl]methanone] gave an IC50 of 1.6 nM.
Compound `O=C(N1CC2(CC(c3ccc(C(F)(F)F)nc3)C2)C1)N1CC2(CN(Cc3ccc(S(=O)(=O)C(F)(F)F)cc3)C2)C1` [Example 526, [6-[6-(trifluoromethyl)-3-pyridyl]-2-azaspiro[3.3]heptan-2-yl]-[6-[[4-(trifluoromethylsulfonyl)phenyl]methyl]-2,6-diazaspiro[3.3]heptan-2-yl]methanone] has an IC50 of 354 nM.
For `Cc1ccn(C2CC3(C2)CN(C(=O)c2ccc(-c4noc(C(C)(C)C)n4)cc2)C3)n1` [Example 148, [4-(5-tert-butyl-1,2,4-oxadiazol-3-yl)phenyl]-[6-(3-methylpyrazol-1-yl)-2-azaspiro[3.3]heptan-2-yl]methanone], the IC50 was 1410 nM.
Work on `O=C(N1CC(Oc2nccc(C(F)(F)F)n2)C1)N1CC2(CC(n3cnc(C4CC4)n3)C2)C1` [Example 316, [6-(3-cyclopropyl-1,2,4-triazol-1-yl)-2-azaspiro[3.3]heptan-2-yl]-[3-[4-(trifluoromethyl)pyrimidin-2-yl]oxyazetidin-1-yl]methanone] yielded an IC50 of 248 nM.
`CC(C)(C)c1nc(-c2ccc(C(=O)N3CC4(CC(n5cc(F)cn5)C4)C3)cc2)no1` [Example 15, [4-(5-tert-butyl-1,2,4-oxadiazol-3-yl)phenyl]-[6-(4-fluoropyrazol-1-yl)-2-azaspiro[3.3]heptan-2-yl]methanone] showed an IC50 of 2670 nM.
`O=C(N1C[C@H]2C[C@H](Oc3ccc(OC(F)(F)F)c(F)c3)C[C@H]2C1)N1CC2(CC(n3cnc(C4CC4)n3)C2)C1` [Example 135, [6-(3-cyclopropyl-1,2,4-triazol-1-yl)-2-azaspiro[3.3]heptan-2-yl]-[rac-(3aS,6aR)-5-[3-fluoro-4-(trifluoromethoxy)phenoxy]-3,3a,4,5,6,6a-hexahydro-1H-cyclopenta[c]pyrrol-2-yl]methanone] gave an IC50 of 3.1 nM.
Work on `O=C(N1CC(CNS(=O)(=O)c2ccc(C(F)(F)F)cc2)C1)N1CC2(CC(n3cnc(C4CC4)n3)C2)C1` [Example 276, N-[[1-[6-(3-cyclopropyl-1,2,4-triazol-1-yl)-2-azaspiro[3.3]heptane-2-carbonyl]azetidin-3-yl]methyl]-4-(trifluoromethyl)benzene-sulfonamide] yielded an IC50 of 35.7 nM.
`CS(=O)(=O)c1ccc(CC2CC3(C2)CN(C(=O)N2CC4(CC(n5cnc(C(F)(F)F)n5)C4)C2)C3)c(F)c1` [Example 459, [6-[(2-fluoro-4-methylsulfonyl-phenyl)methyl]-2-azaspiro[3.3]heptan-2-yl]-[6-[3-(trifluoromethyl)-1,2,4-triazol-1-yl]-2-azaspiro[3.3]heptan-2-yl]methanone] was tested, and the IC50 was 0.3 nM.
Compound `N=S(=O)(c1cccc(CC2CC3(C2)CN(C(=O)N2CC4(CC(n5cnc(C6(O)CC6)n5)C4)C2)C3)c1)C(F)(F)F` (single isomer, unassigned) [Example 406, [6-[3-(1-hydroxycyclopropyl)-1,2,4-triazol-1-yl]-2-azaspiro[3.3]heptan-2-yl]-[6-[[3-(trifluoromethyl-sulfonimidoyl)phenyl]methyl]-2-azaspiro[3.3]heptan-2-yl]methanone] has an IC50 of 1.63 nM.
With `CC(C)c1ncn(C2CC3(C2)CN(C(=O)N2CC4(CC(Cc5ccc(F)cc5F)C4)C2)C3)n1` [Example 203, [6-[(2,4-difluorophenyl)methyl]-2-azaspiro[3.3]heptan-2-yl]-[6-(3-isopropyl-1,2,4-triazol-1-yl)-2-azaspiro[3.3]heptan-2-yl]methanone] the IC50 was 0.8 nM.
With `O=C(N1CC(n2cc(OCC(F)(F)F)cn2)C1)N1CC2(CC(n3cnc(C4CC4)c3)C2)C1` [Example 144, [6-(4-cyclopropylimidazol-1-yl)-2-azaspiro[3.3]heptan-2-yl]-[3-[4-(2,2,2-trifluoroethoxy)pyrazol-1-yl]azetidin-1-yl]methanone] the IC50 was 602 nM.
With `O=C(N1CC2(CC(n3cnc(C4CC4)n3)C2)C1)N1CC2(C1)CN(S(=O)(=O)c1ccc(C(F)(F)F)nc1)C2` [Example 255, [6-(3-cyclopropyl-1,2,4-triazol-1-yl)-2-azaspiro[3.3]heptan-2-yl]-[2-[[6-(trifluoromethyl)-3-pyridyl]sulfonyl]-2,6-diazaspiro[3.3]heptan-6-yl]methanone] the IC50 was 17.2 nM.
With `O=C(N1CC2(CC(n3cnc(C4CC4)n3)C2)C1)N1CC2(C1)CN(S(=O)(=O)c1ccc(C(F)(F)F)cc1)C2` [Example 225, [6-(3-cyclopropyl-1,2,4-triazol-1-yl)-2-azaspiro[3.3]heptan-2-yl]-[2-[4-(trifluoromethyl)phenyl]sulfonyl-2,6-diazaspiro[3.3]heptan-6-yl]methanone] the IC50 was 3.3 nM.
`CC(C)(C)CS(=O)(=O)N1CC2(CN(C(=O)N3CC4(CC(n5cnc(C6CC6)n5)C4)C3)C2)C1` [Example 239] gave an IC50 of 6.6 nM.
In the case of `O=C(N1CC(c2ccc(N3CC(C(F)(F)F)C3)nc2)C1)N1CC2(CC(n3cnc(C4(O)CC4)n3)C2)C1` [Example 496, [6-[3-(1-hydroxycyclopropyl)-1,2,4-triazol-1-yl]-2-azaspiro[3.3]heptan-2-yl]-[3-[6-[3-(trifluoromethyl)azetidin-1-yl]-3-pyridyl]azetidin-1-yl]methanone], the IC50 is reported as 9.34 nM.

Source: US20240199587A1, “HETEROCYCLIC COMPOUNDS” (Hoffmann-La Roche Inc., priority 2021, published 2024)
